Assay results reported in patent publication US20130252988A1, “COMPOSITIONS AND METHODS FOR TREATING MYELOFIBROSIS” (TARGEGEN, INC., priority 2010, published 2013).
“Also recorded” adds a separate entry of the source. Structures can show the parent of a compound that is named as a salt. Where two headings read alike, the source gives them in different places. Marks after values point to notes of the source that are not given here.

Tested on: subjects with myelofibrosis
Settings: for Abdominal pain Severity Grade 1-2, subjects n (%) / Abdominal pain Severity Grade 3-4, subjects n (%) / Alanine aminotransferase increased Severity Grade 1-2, subjects n (%) / Alanine aminotransferase increased Severity Grade 3-4, subjects n (%) / Anorexia Severity Grade 1-2, subjects n (%) / Anorexia Severity Grade 3-4, subjects n (%) / Aspartate aminotransferase increased Severity Grade 1-2, subjects n (%) / Aspartate aminotransferase increased Severity Grade 3-4, subjects n (%) / Blood alkaline phosphatase increased Severity Grade 1-2, subjects n (%) / Blood alkaline phosphatase increased Severity Grade 3-4, subjects n (%) / Blood creatinine increased Severity Grade 1-2, subjects n (%) / Blood creatinine increased Severity Grade 3-4, subjects n (%) / Diarrhea Severity Grade 1-2, subjects n (%) / Diarrhea Severity Grade 3-4, subjects n (%) / Dry skin Severity Grade 1-2, subjects n (%) / Dry skin Severity Grade 3-4, subjects n (%) / Edema peripheral Severity Grade 1-2, subjects n (%) / Edema peripheral Severity Grade 3-4, subjects n (%) / Hyperlipasemia Severity Grade 1-2, subjects n (%) / Hyperlipasemia Severity Grade 3-4, subjects n (%) / Hypocalcemia Severity Grade 1-2, subjects n (%) / Hypocalcemia Severity Grade 3-4, subjects n (%) / Nausea Severity Grade 1-2, subjects n (%) / Nausea Severity Grade 3-4, subjects n (%) / Skin exfoliation Severity Grade 1-2, subjects n (%) / Skin exfoliation Severity Grade 3-4, subjects n (%) / Vomiting Severity Grade 1-2, subjects n (%) / Vomiting Severity Grade 3-4, subjects n (%): Table 9: AE at least possibly related to TG101348; for Neutropenia Severity Grade 1-2, subjects n (%) / Neutropenia Severity Grade 3-4, subjects n (%) / Thrombocytopenia Severity Grade 1-2, subjects n (%) / Thrombocytopenia Severity Grade 3-4, subjects n (%) / Anemia Severity Grade 1-2, subjects n (%) / Anemia Severity Grade 3-4, subjects n (%): Table 10: at least possibly related
[1] = Table 5: treatment-emergent non-hematologic laboratory finding, MTD subjects (N = 40)
[2] = All Subjects, not transfusion dependent at study entry (n = 37)
[3] = MTD Cohort, not transfusion dependent at study entry (n = 24)
[4] = overall, at least possibly related
[5] = subject 106-024, 800/680 mg/day, onset day 87, stopped temporarily, Recovered/resolved

## Cc1cnc(Nc2ccc(OCCN3CCCC3)cc2)nc1Nc1cccc(S(=O)(=O)NC(C)(C)C)c1 [TG101348, N-tert-butyl-3-[(5-methyl-2-{[4-(2-pyrrolidin-1-ylethoxy)phenyl]amino}pyrimidin-4-yl)amino]benzenesulfonamide dihydrochloride monohydrate]
[1]
  Hyperkalemia Grade 4, subjects n (%): 1 (3%)
  Hyperlipasemia Grade 2, subjects n (%): 4 (10%)
  Hyperlipasemia Grade 3, subjects n (%): 3 (8%)
  Hyperlipasemia Grade 4, subjects n (%): 2 (5%)
  Hypocalcemia Grade 2, subjects n (%): 8 (20%)
  Hypocalcemia Grade 3, subjects n (%): 3 (8%)
  Hypocalcemia Grade 4, subjects n (%): 0
All Subjects (n = 59)
  Abdominal pain Severity Grade 1-2, subjects n (%): 6 (10.2%)
  Abdominal pain Severity Grade 3-4, subjects n (%): 0
  Alanine aminotransferase increased Severity Grade 1-2, subjects n (%): 11 (18.6%)
  Alanine aminotransferase increased Severity Grade 3-4, subjects n (%): 4 (6.8%)
  Anorexia Severity Grade 1-2, subjects n (%): 8 (13.6%)
  Anorexia Severity Grade 3-4, subjects n (%): 0
  Aspartate aminotransferase increased Severity Grade 1-2, subjects n (%): 15 (25.4%)
  Aspartate aminotransferase increased Severity Grade 3-4, subjects n (%): 1 (1.7%)
  Blood alkaline phosphatase increased Severity Grade 1-2, subjects n (%): 10 (16.9%)
  Blood alkaline phosphatase increased Severity Grade 3-4, subjects n (%): 0
  Blood creatinine increased Severity Grade 1-2, subjects n (%): 14 (23.7%)
  Blood creatinine increased Severity Grade 3-4, subjects n (%): 0
  Diarrhea Severity Grade 1-2, subjects n (%): 32 (54.2%)
  Diarrhea Severity Grade 3-4, subjects n (%): 6 (10.2%)
  Dry skin Severity Grade 1-2, subjects n (%): 6 (10.2%)
  Dry skin Severity Grade 3-4, subjects n (%): 0
  Edema peripheral Severity Grade 1-2, subjects n (%): 6 (10.2%)
  Edema peripheral Severity Grade 3-4, subjects n (%): 0
  Hyperlipasemia Severity Grade 1-2, subjects n (%): 10 (16.9%)
  Hyperlipasemia Severity Grade 3-4, subjects n (%): 6 (10.2%)
  Hypocalcemia Severity Grade 1-2, subjects n (%): 7 (11.9%)
  Hypocalcemia Severity Grade 3-4, subjects n (%): 1 (1.7%)
  Nausea Severity Grade 1-2, subjects n (%): 39 (66.1%)
  Nausea Severity Grade 3-4, subjects n (%): 2 (3.4%)
  Skin exfoliation Severity Grade 1-2, subjects n (%): 8 (13.6%)
  Skin exfoliation Severity Grade 3-4, subjects n (%): 0
  Vomiting Severity Grade 1-2, subjects n (%): 32 (54.2%)
  Vomiting Severity Grade 3-4, subjects n (%): 2 (3.4%)
  Neutropenia Severity Grade 1-2, subjects n (%): 2 (3.4%)
  Neutropenia Severity Grade 3-4, subjects n (%): 6 (10.2%)
  Thrombocytopenia Severity Grade 1-2, subjects n (%): 10 (17.0%)
  Thrombocytopenia Severity Grade 3-4, subjects n (%): 14 (23.7%)
MTD Cohort (n = 40)
  Abdominal pain Severity Grade 1-2, subjects n (%): 4 (10.0%)
  Abdominal pain Severity Grade 3-4, subjects n (%): 0
  Alanine aminotransferase increased Severity Grade 1-2, subjects n (%): 9 (22.5%)
  Alanine aminotransferase increased Severity Grade 3-4, subjects n (%): 3 (7.5%)
  Anorexia Severity Grade 1-2, subjects n (%): 6 (15.0%)
  Anorexia Severity Grade 3-4, subjects n (%): 0
  Aspartate aminotransferase increased Severity Grade 1-2, subjects n (%): 13 (32.5%)
  Aspartate aminotransferase increased Severity Grade 3-4, subjects n (%): 1 (2.5%)
  Blood alkaline phosphatase increased Severity Grade 1-2, subjects n (%): 9 (22.5%)
  Blood alkaline phosphatase increased Severity Grade 3-4, subjects n (%): 0
  Blood creatinine increased Severity Grade 1-2, subjects n (%): 11 (27.5%)
  Blood creatinine increased Severity Grade 3-4, subjects n (%): 0
  Diarrhea Severity Grade 1-2, subjects n (%): 25 (62.5%)
  Diarrhea Severity Grade 3-4, subjects n (%): 5 (12.5%)
  Dry skin Severity Grade 1-2, subjects n (%): 6 (15%)
  Dry skin Severity Grade 3-4, subjects n (%): 0
  Edema peripheral Severity Grade 1-2, subjects n (%): 4 (10.0%)
  Edema peripheral Severity Grade 3-4, subjects n (%): 0
  Hyperlipasemia Severity Grade 1-2, subjects n (%): 9 (22.5%)
  Hyperlipasemia Severity Grade 3-4, subjects n (%): 6 (15.0%)
  Hypocalcemia Severity Grade 1-2, subjects n (%): 6 (15.0%)
  Hypocalcemia Severity Grade 3-4, subjects n (%): 1 (2.5%)
  Nausea Severity Grade 1-2, subjects n (%): 31 (77.5%)
  Nausea Severity Grade 3-4, subjects n (%): 2 (5.0%)
  Skin exfoliation Severity Grade 1-2, subjects n (%): 8 (20.0%)
  Skin exfoliation Severity Grade 3-4, subjects n (%): 0
  Vomiting Severity Grade 1-2, subjects n (%): 27 (67.5%)
  Vomiting Severity Grade 3-4, subjects n (%): 1 (2.5%)
  Neutropenia Severity Grade 1-2, subjects n (%): 2 (5.0%)
  Neutropenia Severity Grade 3-4, subjects n (%): 4 (10.0%)
  Thrombocytopenia Severity Grade 1-2, subjects n (%): 8 (20.0%)
  Thrombocytopenia Severity Grade 3-4, subjects n (%): 11 (27.5%)
[2]
  Anemia Severity Grade 1-2, subjects n (%): 3 (8.1%)
  Anemia Severity Grade 3-4, subjects n (%): 13 (35.1%)
[3]
  Anemia Severity Grade 1-2, subjects n (%): 2 (8.3%)
  Anemia Severity Grade 3-4, subjects n (%): 13 (54.2%)
All subjects
  Grade 3/4 neutropenia considered related to TG101348, subjects: 10%
  Grade 3/4 thrombocytopenia considered related to TG101348, subjects: 24%
At 800 mg/day, dihydrochloride monohydrate
  Dose-limiting toxicity (DLT): asymptomatic grade 3 or 4 amylasemia/lipasemia that was reversible; also recorded: asymptomatic grade 3 or 4 hyperamylasemia (with or without hyperlipasemia) that was reversible
At data cutoff, extension study
  Safety findings with continued dosing beyond 6 cycles: no unique safety findings have emerged
Discontinued without prior dose reduction or tapering, dihydrochloride monohydrate
  Cytokine rebound upon discontinuation of TG101348: absence of immediate adverse cytokine-rebound phenomenon; also recorded: did not experience “cytokine rebound”
Following a total of 24 to 46 weeks on therapy
  Discontinuation because of adverse events during the extension study, number of subjects: 3
hepatosplenomegaly/ascites, accelerated myelofibrosis, leukemic transformation
  Subjects with disease progression: Three
Initiated treatment at 680 mg/day
  Emergence of transfusion requirement, subjects: 72%
Initiated treatment at 240-520 mg/day
  Emergence of transfusion requirement, subjects: 33%
Of 37 subjects not transfusion dependent at baseline
  Grade 3/4 anemia considered related to TG101348, subjects: 35%
Oral once daily, dose escalation 30 to 800 mg/day
  Maximum tolerated dose (MTD): 680 mg/day
overall
  Grades 3/4 asymptomatic increase in ALT, subjects: 7%
  Grades 3/4 asymptomatic increase in AST, subjects: 2%
  Grades 3/4 asymptomatic increase in serum lipase, subjects: 10%
  Grades 3/4 increase in alkaline phosphatase, subjects: 0%
  Grades 3/4 increase in creatinine, subjects: 0%
Overall and MTD cohort
  Grade 4 nausea, diarrhea and vomiting: no Grade 4 events
[4]
  Grade 3 diarrhea, subjects: 10%
  Grade 3 nausea, subjects: 3%
  Grade 3 vomiting, subjects: 3%
Patients with myelofibrosis, dihydrochloride monohydrate
  Tolerability: generally well tolerated
Subject 101-047, 680/680 mg/day, onset day 52, stopped temporarily, Recovered/resolved
  Serious adverse event Neutropenia: CTCAE Severity Grade: 2
Subject 104-015, 360/520 mg/day, onset day 256, permanently discontinued, Not recovered/not resolved, died (suicide) approximately 12 weeks after discontinuation
  Serious adverse event Depression: CTCAE Severity Grade: 3*
Subject 105-013, 240/0 mg/day, onset day 356, action none, Recovered/resolved
  Serious adverse event Hyperlipasemia: CTCAE Severity Grade: 4
Subject 105-013, 240/360 mg/day, onset day 247, permanently discontinued, Not recovered/not resolved
  Serious adverse event Thrombocytopenia: CTCAE Severity Grade: 4
Subject 105-013, starting dose/dose at event 240/360 mg/day, onset day 215, action none, Recovered/resolved
  Serious adverse event Thrombocytopenia: CTCAE Severity Grade: 4
Subject 105-056, 680/520 mg/day, onset day 95, stopped temporarily, Recovered/resolved with sequelae
  Serious adverse event Gallbladder pain: CTCAE Severity Grade: 3
Subject 105-056, 680/680 mg/day, onset day 22, stopped temporarily, Recovered/resolved
  Serious adverse event Cerebrovascular accident: CTCAE Severity Grade: 4
Subject 105-059, 680/360 mg/day, onset day 42, permanently discontinued, Fatal
  Serious adverse event Cardiac arrest: CTCAE Severity Grade: 5
Subject 105-059, 680/520 mg/day, onset day 28, stopped temporarily, Recovered/resolved
  Serious adverse event Hyperlipasemia: CTCAE Severity Grade: 3
Subject 105-059, 680/680 mg/day, onset day 8, stopped temporarily, Recovered/resolved
  Serious adverse event Hyperlipasemia: CTCAE Severity Grade: 3
Subject 106-024, 800/400 mg/day, onset day 474, action none, Recovered/resolved
  Serious adverse event Dehydration: CTCAE Severity Grade: 3
Subject 106-024, 800/440 mg/day, onset day 366, stopped temporarily, Recovered/resolved
  Serious adverse event Tumor lysis syndrome: CTCAE Severity Grade: 3
[5]
  Serious adverse event Dehydration: CTCAE Severity Grade: 2
  Serious adverse event Diarrhea: CTCAE Severity Grade: 3
  Serious adverse event Nausea: CTCAE Severity Grade: 2
  Serious adverse event Vomiting: CTCAE Severity Grade: 2
Subject 106-033, 680/680 mg/day, onset day 8, stopped temporarily, Recovered/resolved
  Serious adverse event Pleuritic pain: CTCAE Severity Grade: 2
Subject 106-045, 680/440 mg/day, onset day 170, stopped temporarily, Recovered/resolved
  Serious adverse event Dehydration: CTCAE Severity Grade: 3
